Target: human GABA A receptor α5β3γ2 (Homo sapiens (Human), UniProt P18507+P31644)
Assay: [3H]flumazenil competition binding assay, human GABA A α5β3γ2 receptors expressed in HEK293 cells
Settings: human receptor; displacement of [3H]flumazenil (0.5 nM); means of two determinations; read-out: hKi GABAAa5
Outline: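 Ki values, each the mean of two runs, derive from displacement of [3H]flumazenil from human α5β3γ2 GABA A receptors transiently expressed in HEK293 membranes. Binding ran 1 h at 4° C in Krebs-tris, pH 7.5, before filter harvest and scintillation counting.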

SMILES	Ki [nM]
Cc1onc(-c2ccccc2)c1COc1ccc(C(=O)NCC(C)(C)O)cn1 [Example 193, N-(2-Hydroxy-2-methyl-propyl)-6-(5-methyl-3-phenyl-isoxazol-4-ylmethoxy)-nicotinamide]	2.3
Cc1onc(-c2ccccc2)c1COc1ccc(C(=O)NCC2(O)CC2)cn1 [Example 194, N-(1-Hydroxy-cyclopropylmethyl)-6-(5-methyl-3-phenyl-isoxazol-4-ylmethoxy)-nicotinamide]	2.1
Cc1onc(-c2ccccc2)c1COc1ccc(C(=O)N[C@H](C)CO)cn1 [Example 195, N—((R)-2-Hydroxy-1-methyl-ethyl)-6-(5-methyl-3-phenyl-isoxazol-4-ylmethoxy)-nicotinamide]	1.7
Cc1onc(-c2ccccc2)c1COc1ccc(C(=O)N[C@@H](C)CO)cn1 [Example 196, N—((S)-2-Hydroxy-1-methyl-ethyl)-6-(5-methyl-3-phenyl-isoxazol-4-ylmethoxy)-nicotinamide]	0.7
Cc1onc(-c2ccccc2)c1COc1ccc(C(=O)N[C@@H]2CCCC[C@H]2O)cn1 [Example 197, N-((1R,2R)-2-Hydroxy-cyclohexyl)-6-(5-methyl-3-phenyl-isoxazol-4-ylmethoxy)-nicotinamide]	11
Cc1onc(-c2ccccc2)c1COc1ccc(C(=O)N[C@H]2CCCC[C@@H]2O)cn1 [Example 198, N-((1S,2S)-2-Hydroxy-cyclohexyl)-6-(5-methyl-3-phenyl-isoxazol-4-ylmethoxy)-nicotinamide]	6.5
Cc1onc(-c2ccccc2)c1COc1ccc(C(=O)NC2CCCC2O)cn1 (stereo not drawn) [Example 200, N-(2-Hydroxy-cyclopentyl)-6-(5-methyl-3-phenyl-isoxazol-4-ylmethoxy)-nicotinamide]	3.9
Cc1onc(-c2ccccc2)c1COc1ccc(C(=O)NC(CO)CO)cn1 [Example 201, N-(2-Hydroxy-1-hydroxymethyl-ethyl)-6-(5-methyl-3-phenyl-isoxazol-4-ylmethoxy)-nicotinamide]	1.7
Cc1onc(-c2ccccc2)c1COc1ccc(C(=O)N[C@H]2CCOC2)cn1 [Example 202, 6-(5-Methyl-3-phenyl-isoxazol-4-ylmethoxy)-N—(S)-tetrahydro-furan-3-yl-nicotinamide]	1.6
CC(=O)NCCNC(=O)c1ccc(OCc2c(-c3ccccc3)noc2C)nc1 [Example 205, N-(2-Acetylamino-ethyl)-6-(5-methyl-3-phenyl-isoxazol-4-ylmethoxy)-nicotinamide]	4
Cc1onc(-c2ccccc2)c1COc1ccc(C(=O)N[C@H](CO)C(C)C)cn1 [Example 206, N—((S)-1-Hydroxymethyl-2-methyl-propyl)-6-(5-methyl-3-phenyl-isoxazol-4-ylmethoxy)-nicotinamide]	1.8
Cc1onc(-c2ccccc2)c1COc1ccc(C(=O)N[C@H](CO)CC(C)C)cn1 [Example 207, N—((S)-1-Hydroxymethyl-3-methyl-butyl)-6-(5-methyl-3-phenyl-isoxazol-4-ylmethoxy)-nicotinamide]	10.9
CC[C@@H](CO)NC(=O)c1ccc(OCc2c(-c3ccccc3)noc2C)nc1 [Example 208, N—((S)-1-Hydroxymethyl-propyl)-6-(5-methyl-3-phenyl-isoxazol-4-ylmethoxy)-nicotinamide]	0.7
CC[C@H](CO)NC(=O)c1ccc(OCc2c(-c3ccccc3)noc2C)nc1 [Example 209, N—((R)-1-Hydroxymethyl-propyl)-6-(5-methyl-3-phenyl-isoxazol-4-ylmethoxy)-nicotinamide]	2.3
Cc1onc(-c2ccccc2)c1COc1ccc(C(=O)NCCN2CCNC2=O)cn1 [Example 214, 6-(5-Methyl-3-phenyl-isoxazol-4-ylmethoxy)-N-[2-(2-oxo-imidazolidin-1-yl)-ethyl]-nicotinamide]	4.3
Cc1onc(-c2ccccc2)c1COc1ccc(C(=O)NCCC(C)O)cn1 (stereo not drawn) [Example 215, N-(3-Hydroxy-butyl)-6-(5-methyl-3-phenyl-isoxazol-4-ylmethoxy)-nicotinamide]	2.3
Cc1onc(-c2ccccc2)c1COc1ccc(C(=O)NC2CN(C(=O)OC(C)(C)C)C2)cn1 [Example 216, 3-{[6-(5-Methyl-3-phenyl-isoxazol-4-ylmethoxy)-pyridine-3-carbonyl]-amino}-azetidine-1-carboxylic acid tert-butyl ester]	4.5
Cc1onc(-c2ccccc2)c1COc1ccc(C(=O)NCCNC(=O)OC(C)(C)C)cn1 [Example 217, (2-{[6-(5-Methyl-3-phenyl-isoxazol-4-ylmethoxy)-pyridine-3-carbonyl]-amino}-ethyl)-carbamic acid tert-butyl ester]	8.4
Cc1onc(-c2ccccc2)c1COc1ccc(C(=O)NCC(O)CO)cn1 (stereo not drawn) [Example 218, N-(2,3-Dihydroxy-propyl)-6-(5-methyl-3-phenyl-isoxazol-4-ylmethoxy)-nicotinamide]	2
Cc1onc(-c2ccccc2)c1COc1ccc(C(=O)NCCCO)cn1 [Example 219, N-(3-Hydroxy-propyl)-6-(5-methyl-3-phenyl-isoxazol-4-ylmethoxy)-nicotinamide]	2.2
Cc1onc(-c2ccccc2)c1COc1ccc(C(=O)NCCCCO)cn1 [Example 220, N-(4-Hydroxy-butyl)-6-(5-methyl-3-phenyl-isoxazol-4-ylmethoxy)-nicotinamide]	2.6
Cc1onc(-c2ccccc2)c1COc1ccc(C(=O)NCCCCCO)cn1 [Example 221, N-(5-Hydroxy-pentyl)-6-(5-methyl-3-phenyl-isoxazol-4-ylmethoxy)-nicotinamide]	4.1
Cc1onc(-c2ccccc2)c1COc1ccc(C(=O)NCCCCCCO)cn1 [Example 222, N-(6-Hydroxy-hexyl)-6-(5-methyl-3-phenyl-isoxazol-4-ylmethoxy)-nicotinamide]	8.2
Cc1onc(-c2ccccc2)c1COc1ccc(C(=O)N2CCC(O)C2)cn1 (stereo not drawn) [Example 223, (3-Hydroxy-pyrrolidin-1-yl)-[6-(5-methyl-3-phenyl-isoxazol-4-ylmethoxy)-pyridin-3-yl]-methanone]	26.1
Cc1onc(-c2ccccc2)c1COc1ccc(C(=O)N2CCC[C@H]2CO)cn1 [Example 224]	41.9
Cc1onc(-c2ccccc2)c1COc1ccc(C(=O)N2CCC[C@@H]2CO)cn1 [Example 225]	20.2
Cc1onc(-c2ccccc2)c1COc1ccc(C(=O)NC2CC(OCc3ccccc3)C2)cn1 (stereo not drawn) [Example 226, N-(3-Benzyloxy-cyclobutyl)-6-(5-methyl-3-phenyl-isoxazol-4-ylmethoxy)-nicotinamide]	2.6
Cc1onc(-c2ccccc2)c1COc1ccc(C(=O)N2CCCC2C)cn1 (stereo not drawn) [Example 227, [6-(5-Methyl-3-phenyl-isoxazol-4-ylmethoxy)-pyridin-3-yl]-(2-methyl-pyrrolidin-1-yl)-methanone]	48
Cc1onc(-c2ccccc2)c1COc1ccc(C(=O)N2CCCC2)cn1 [Example 228, [6-(5-Methyl-3-phenyl-isoxazol-4-ylmethoxy)-pyridin-3-yl]-pyrrolidin-1-yl-methanone]	37.1
COC(=O)[C@H](Cc1ccccc1)NC(=O)c1ccc(OCc2c(-c3ccccc3)noc2C)nc1 [Example 229, (S)-2-{[6-(5-Methyl-3-phenyl-isoxazol-4-ylmethoxy)-pyridine-3-carbonyl]-amino}-3-phenyl-propionic acid methyl ester]	47.7

Reference: patent US8846719B2, “Isoxazolo-pyridine derivatives” (Roche Palo Alto LLC, priority 2007, dated 2014)
